Measurements taken from ChEMBL document CHEMBL3045428, “Hypolipidemic, hepato-protective and renal damage recovering effects of catechin isolated from the methanolic extract of Cassia fistula stem bark on Streptozotocin-induced diabetic Wistar rats: a biochemical and morphological analysis” (Med Chem Res, 2012).
The source made the active and inactive calls. The rule behind the calls is not given here.

Key:
Rattus norvegicus [1] = test: Toxicity in Rattus norvegicus Wistar albino (rat) assessed as serum triglyceride level at 20 mg/kg, po administered via intragastric tube for 45 days (Rvb =17.72 +/-1.3 mg/dl); format: organism-based; set-up: dose 20 mg/kg, route oral; conditions: in vivo, 1080 h
Rattus norvegicus [2] = test: Nephrotoxicity in Rattus norvegicus Wistar albino (rat) assessed as change in urea level in serum at 20 mg/kg, po administered via intragastric tube for 45 days (reference value: 24.12 +/- 2.3 mg/dl ); format: toxicity, organism-based; set-up: dose 20 mg/kg, route oral; conditions: in vivo, 1080 h
Rattus norvegicus [3] = test: Nephrotoxicity in Rattus norvegicus Wistar albino (rat) assessed as change in creatinine level in serum at 20 mg/kg, po administered via intragastric tube for 45 days (reference value: 1.62 +/- 0.2 mg/dl ); format: toxicity, organism-based; set-up: dose 20 mg/kg, route oral; conditions: in vivo, 1080 h
Rattus norvegicus [4] = test: Hepatotoxicity in Rattus norvegicus Wistar albino (rat) assessed as change in plasma ALP level at 20 mg/kg, po administered via intragastric tube for 45 days (reference value: 49.99+/-4.7 ug/dl); format: toxicity, organism-based; set-up: dose 20 mg/kg, route oral; conditions: in vivo, 1080 h
Rattus norvegicus [5] = test: Toxicity in Rattus norvegicus Wistar albino (rat) assessed as change in body weight at 20 mg/kg, po administered via intragastric tube for 45 days (reference value: 238.2 +/-7.3 g); format: organism-based; set-up: dose 20 mg/kg, route oral; conditions: in vivo, 1080 h
Rattus norvegicus [6] = test: Hepatotoxicity in Rattus norvegicus Wistar albino (rat) assessed as change in plasma ALT level at 20 mg/kg, po administered via intragastric tube for 45 days (reference value: 56.72 +/-5.2 ug/dl); format: toxicity, organism-based; set-up: dose 20 mg/kg, route oral; conditions: in vivo, 1080 h
Rattus norvegicus [7] = test: Nephrotoxicity in Rattus norvegicus Wistar albino (rat) assessed as change in uric acid level in serum at 20 mg/kg, po administered via intragastric tube for 45 days (reference value: 0.96 +/- 0.93 mg/dl ); format: toxicity, organism-based; set-up: dose 20 mg/kg, route oral; conditions: in vivo, 1080 h
Rattus norvegicus [8] = test: Hepatotoxicity in Rattus norvegicus Wistar albino (rat) assessed as change in plasma ACP level at 20 mg/kg, po administered via intragastric tube for 45 days (reference value: 9.97+/-1.1 ug/dl); format: toxicity, organism-based; set-up: dose 20 mg/kg, route oral; conditions: in vivo, 1080 h
Rattus norvegicus [9] = test: Nephrotoxicity in Rattus norvegicus Wistar albino (rat) assessed as change in serum total protein level at 20 mg/kg, po administered via intragastric tube for 45 days (reference value: 8.12 +/- 1.0 g/dl ); format: toxicity, organism-based; set-up: dose 20 mg/kg, route oral; conditions: in vivo, 1080 h
Rattus norvegicus [10] = test: Hepatotoxicity in Rattus norvegicus Wistar albino (rat) assessed as change in plasma AST level at 20 mg/kg, po administered via intragastric tube for 45 days (reference value: 39.6 +/-3.3 ug/dl); format: toxicity, organism-based; set-up: dose 20 mg/kg, route oral; conditions: in vivo, 1080 h
Rattus norvegicus [11] = test: Toxicity in Rattus norvegicus Wistar albino (rat) assessed as change in glycosylated hemoglobin of total hemoglobin at 20 mg/kg, po administered via intragastric tube for 45 days (reference value: 0.52 +/-0.03 % ); format: organism-based; set-up: dose 20 mg/kg, route oral; conditions: in vivo, 1080 h
Rattus norvegicus [12] = test: Toxicity in Rattus norvegicus Wistar albino (rat) assessed as serum cholesterol level at 20 mg/kg, po administered via intragastric tube for 45 days (reference value: 97.72 +/-7.3 mg/dl); format: organism-based; set-up: dose 20 mg/kg, route oral; conditions: in vivo, 1080 h
Rattus norvegicus [13] = test: Toxicity in Rattus norvegicus Wistar albino (rat) assessed as change in hemoglobin level at 20 mg/kg, po administered via intragastric tube for 45 days (reference value: 15.12 +/-1.3 mg/dl ); format: organism-based; set-up: dose 20 mg/kg, route oral; conditions: in vivo, 1080 h
Rattus norvegicus [14] = test: Toxicity in Rattus norvegicus Wistar albino (rat) assessed as serum HDL level at 20 mg/kg, po administered via intragastric tube for 45 days (Rvb =65.21 +/-6.9 mg/dl); format: organism-based; set-up: dose 20 mg/kg, route oral; conditions: in vivo, 1080 h
Rattus norvegicus [15] = test: Hepatoprotective activity in STZ-induced diabetic Rattus norvegicus Wistar albino (rat) assessed as plasma AST level at 20 mg/kg, po administered via intragastric tube for 45 days (reference value: 85.5 +/-9.21 ug/dl); format: functional
Rattus norvegicus [16] = test: Antidiabetic activity against STZ-induced diabetic Rattus norvegicus Wistar albino (rat) assessed as change in glycosylated hemoglobin of total hemoglobin at 20 mg/kg, po administered via intragastric tube for 45 days (reference value: 0.89 +/-0.03 %); format: functional
Rattus norvegicus [17] = test: Antidiabetic activity against STZ-induced diabetic Rattus norvegicus Wistar albino (rat) assessed as serum VLDL level at 20 mg/kg, po administered via intragastric tube for 45 days (reference value: 55.2 +/-4.5 mg/dl); format: functional
Rattus norvegicus [18] = test: Antidiabetic activity against STZ-induced diabetic Rattus norvegicus Wistar albino (rat) assessed as change in body weight at 20 mg/kg, po administered via intragastric tube for 45 days (reference value: 243.67 +/-8.9 g); format: functional
Rattus norvegicus [19] = test: Nephroprotective activity in STZ-induced diabetic Rattus norvegicus Wistar albino (rat) assessed as change in serum creatinine level at 20 mg/kg, po administered via intragastric tube for 45 days (reference value: 2.1 +/-0.9 mg/dl); format: functional
Rattus norvegicus [20] = test: Antidiabetic activity against STZ-induced diabetic Rattus norvegicus Wistar albino (rat) assessed as serum LDL level at 20 mg/kg, po administered via intragastric tube for 45 days (reference value: 165.7 +/-14.35 mg/dl); format: functional
Rattus norvegicus [21] = test: Nephroprotective activity in STZ-induced diabetic Rattus norvegicus Wistar albino (rat) assessed as change in serum urea level at 20 mg/kg, po administered via intragastric tube for 45 days (reference value: 41.5 +/-4.9 mg/dl); format: functional
Rattus norvegicus [22] = test: Nephroprotective activity in STZ-induced diabetic Rattus norvegicus Wistar albino (rat) assessed as reduction in glomerular expansion at 20 mg/kg, po administered via intragastric tube for 45 days using hematoxylin/eosin staining method; format: functional, organism-based; set-up: dose 20 mg/kg
Rattus norvegicus [23] = test: Nephroprotective activity in STZ-induced diabetic Rattus norvegicus Wistar albino (rat) assessed as change in serum total protein level at 20 mg/kg, po administered via intragastric tube for 45 days (reference value: 3.7 +/-0.9 g/dl); format: functional
Rattus norvegicus [24] = test: Nephroprotective activity in STZ-induced diabetic Rattus norvegicus Wistar albino (rat) assessed as change in serum uric acid level at 20 mg/kg, po administered via intragastric tube for 45 days (reference value: 1.5 +/-0.9 mg/dl); format: functional
Rattus norvegicus [25] = test: Antidiabetic activity against STZ-induced diabetic Rattus norvegicus Wistar albino (rat) assessed as serum cholesterol level at 20 mg/kg, po administered via intragastric tube for 45 days (reference value: 295.5 +/-17.1 mg/dl); format: functional
Rattus norvegicus [26] = test: Hepatoprotective activity in STZ-induced diabetic Rattus norvegicus Wistar albino (rat) assessed as plasma ALP level at 20 mg/kg, po administered via intragastric tube for 45 days (reference value: 91.1 +/-9.2 ug/dl); format: functional
Rattus norvegicus [27] = test: Nephroprotective activity in STZ-induced diabetic Rattus norvegicus Wistar albino (rat) assessed as reduction in enlargement of glomerulus at 20 mg/kg, po administered via intragastric tube for 45 days using hematoxylin/eosin staining method; format: functional, organism-based; set-up: dose 20 mg/kg
Rattus norvegicus [28] = test: Antidiabetic activity against STZ-induced diabetic Rattus norvegicus Wistar albino (rat) assessed as change in hemoglobin at 20 mg/kg, po administered via intragastric tube for 45 days (reference value: 8.5 +/-0.9 mg/dl); format: functional
Rattus norvegicus [29] = test: Hepatoprotective activity in STZ-induced diabetic Rattus norvegicus Wistar albino (rat) assessed as plasma ACP level at 20 mg/kg, po administered via intragastric tube for 45 days (reference value: 28.7 +/-2.61 ug/dl); format: functional
Rattus norvegicus [30] = test: Hepatoprotective activity in STZ-induced diabetic Rattus norvegicus Wistar albino (rat) assessed as plasma ALT level at 20 mg/kg, po administered via intragastric tube for 45 days (reference value: 97.11 +/-10.3 ug/dl); format: functional
Rattus norvegicus [31] = test: Antidiabetic activity against STZ-induced diabetic Rattus norvegicus Wistar albino (rat) assessed as serum triglyceride level at 20 mg/kg, po administered via intragastric tube for 45 days (reference value: 65.5 +/-7.9 mg/dl); format: functional
Rattus norvegicus [32] = test: Hepatoprotective activity in STZ-induced diabetic Rattus norvegicus Wistar albino (rat) assessed as re-apperance of hepatic lobules at 20 mg/kg, po administered via intragastric tube for 45 days using hematoxylin/eosin staining method; format: functional, organism-based; set-up: dose 20 mg/kg; conditions: Liver
Rattus norvegicus [33] = test: Antidiabetic activity against STZ-induced diabetic Rattus norvegicus Wistar albino (rat) assessed as serum HDL level at 20 mg/kg, po administered via intragastric tube for 45 days (reference value: 25.8 +/-1.6 mg/dl); format: functional

`Oc1cc(O)c2c(c1)O[C@H](c1ccc(O)c(O)c1)[C@@H](O)C2` [CATECHIN] gave an Activity (Rattus norvegicus [1]) of 18.18 mg/dL, an Activity (Rattus norvegicus [2]) of 23.98 mg/dL and an Activity (Rattus norvegicus [3]) of 1.98 mg/dL. For the same compound, the Activity (Rattus norvegicus [4]) was 50.87 µg/dL, the Activity (Rattus norvegicus [5]) was 239.67 g and the Activity (Rattus norvegicus [6]) was 55.18 µg/dL. It also gave an Activity (Rattus norvegicus [7]) of 0.98 mg/dL, an Activity (Rattus norvegicus [8]) of 9.52 µg/dL and an Activity (Rattus norvegicus [9]) of 8.98 g/dL. For the same compound, the Activity (Rattus norvegicus [10]) was 36.12 µg/dL, the Activity (Rattus norvegicus [11]) was 0.46% and the Activity (Rattus norvegicus [12]) was 98.34 mg/dL. The Activity (Rattus norvegicus [13]) was 14.98 mg/dL and the Activity (Rattus norvegicus [14]) was 68.65 mg/dL.
Compound `Oc1cc(O)c2c(c1)OC(c1ccc(O)c(O)c1)C(O)C2` (stereo not drawn) [CATECHIN] has an Activity (Rattus norvegicus [15]) of 41.95 µg/dL, an Activity (Rattus norvegicus [16]) of 0.57% and an Activity (Rattus norvegicus [17]) of 13.21 mg/dL. For the same compound, the Activity (Rattus norvegicus [18]) was 209.12 g, the Activity (Rattus norvegicus [19]) was 1.78 mg/dL and the Activity (Rattus norvegicus [20]) was 91.28 mg/dL. For the same compound, the Activity (Rattus norvegicus [21]) was 29.98 mg/dL, the Activity (Rattus norvegicus [22]) was “Active” and the Activity (Rattus norvegicus [23]) was 6.58 g/dL. The Activity (Rattus norvegicus [24]) was 0.99 mg/dL, the Activity (Rattus norvegicus [25]) was 109.21 mg/dL and the Activity (Rattus norvegicus [26]) was 54.29 µg/dL. For the same compound, the Activity (Rattus norvegicus [27]) was “Active”, the Activity (Rattus norvegicus [28]) was 14.98 mg/dL and the Activity (Rattus norvegicus [29]) was 11.98 µg/dL. For the same compound, the Activity (Rattus norvegicus [30]) was 59.71 µg/dL, the Activity (Rattus norvegicus [31]) was 20.81 mg/dL and the Activity (Rattus norvegicus [32]) was “Active”. It also gave an Activity (Rattus norvegicus [33]) of 60.56 mg/dL.
